{"source": "patent US20240246945A1", "about": "“NOVEL COMPOUND FOR CROP PROTECTANT” (LG CHEM, LTD., priority 2010, published 2024)"}
{"system": "Myzus persicae (Sulzer)", "experiment": "Insecticidal Activity Test 1 against Myzus persicae (Sulzer), foliar spray on potted peppers, approximately 5 ppm", "assay_type": "in vivo", "details": "in Capsicum, 120 h, approximately 5 ppm drug solution in water, counted on day 5 after spraying, read-out: mortality rate rating", "description": "Insecticidal Activity Test 1 Against Myzus persicae (Sulzer)\n(§1) Peppers were planted in plastic pots with a diameter of 8 cm and a height of 8 cm, Myzus persicae (Sulzer) was reproduced therein, and then the number of Myzus persicae (Sulzer) in each pot was investigated. Some of the compounds prepared in the examples were selected, the compound was dispersed in water to be diluted to approximately 5 ppm, thereby preparing a drug solution.\nThe drug solution was sprayed onto the foliage of the peppers planted in the pots using a hand sprayer and air-dried, and the pots were stored in a green house.\n(§2) On day 5 after the drug spraying, the number of Myzus persicae (Sulzer) parasitic on each pepper was counted, a mortality rate was calculated from the following formula, and the rating of each compound was investigated.\n(§3) [formula] • A rating: 90% to 100% mortality • B rating: 80% or more and less than 90% mortality • C rating: less than 80% mortality", "units": {"mortality at 5 µg/mL": "%"}}
{"smiles": "CCSc1ccccc1-c1nc(-c2ncc(C(=O)N(CC)c3cccnc3)n2C)no1", "note": "[Ia-1-1-43, N-ethyl-2-(5-(2-(ethylthio)phenyl)-1,2,4-oxadiazol-3-yl)-1-methyl-N-(pyridin-3-yl)-1H-imidazole-5-carboxamide]", "mortality at 5 µg/mL": "90 to 100"}
{"smiles": "CCN(C(=O)c1cnc(-c2nnc(C3CC3)o2)n1C)c1cccnc1", "note": "[Ia-1-3-2, 2-(5-cyclopropyl-1,3,4-oxadiazol-2-yl)-N-ethyl-1-methyl-N-(pyridin-3-yl)-1H-imidazole-5-carboxamide]", "mortality at 5 µg/mL": "90 to 100"}
{"smiles": "CCN(C(=O)c1cnc(-c2nnc(C)o2)n1C)c1cccnc1", "note": "[Ia-1-3-3, N-ethyl-1-methyl-2-(5-methyl-1,3,4-oxadiazol-2-yl)-N-(pyridin-3-yl)-1H-imidazole-5-carboxamide]", "mortality at 5 µg/mL": "90 to 100"}
{"smiles": "CCN(C(=O)c1cnc(C2=NOC(C)(C)N2C)n1C)c1cccnc1", "note": "[Ia-1-4-2, N-ethyl-1-methyl-N-(pyridin-3-yl)-2-(4,5,5-trimethyl-4,5-dihydro-1,2,4-oxadiazol-3-yl)-1H-imidazole-5-carboxamide]", "mortality at 5 µg/mL": "90 to 100"}
{"smiles": "CCN(C(=O)c1cnc(C2=NOC3(CCSCC3)N2C)n1C)c1cccnc1", "note": "[Ia-1-4-22, N-ethyl-1-methyl-2-(4-methyl-1-oxa-8-thia-2,4-diazaspiro[4.5]dec-2-en-3-yl)-N-(pyridin-3-yl)-1H-imidazole-5-carboxamide]", "mortality at 5 µg/mL": "90 to 100"}
{"smiles": "CCN(C(=O)c1cnc(C2=NOC(C3CC3)N2)n1C)c1cccnc1", "note": "(centres unmarked) [Ia-1-4-41, 2-(5-cyclopropyl-4,5-dihydro-1,2,4-oxadiazol-3-yl)-N-ethyl-1-methyl-N-(pyridin-3-yl)-1H-imidazole-5-carboxamide]", "mortality at 5 µg/mL": "90 to 100"}
{"smiles": "CCN(C(=O)c1cnc(C2=NOC(C)N2)n1C)c1cccnc1", "note": "(centres unmarked) [Ia-1-4-43, N-ethyl-1-methyl-2-(5-methyl-4,5-dihydro-1,2,4-oxadiazol-3-yl)-N-(pyridin-3-yl)-1H-imidazole-5-carboxamide]", "mortality at 5 µg/mL": "90 to 100"}
{"smiles": "CCC1NC(c2ncc(C(=O)N(CC)c3cccnc3)n2C)=NO1", "note": "(centres unmarked) [Ia-1-4-44, N-ethyl-2-(5-ethyl-4,5-dihydro-1,2,4-oxadiazol-3-yl)-1-methyl-N-(pyridin-3-yl)-1H-imidazole-5-carboxamide]", "mortality at 5 µg/mL": "90 to 100"}
{"smiles": "CCN(C(=O)c1cnc(C2=NC3(CCOCC3)ON2C)n1C)c1cccnc1", "note": "[Ia-1-5-2, N-ethyl-1-methyl-2-(2-methyl-1,8-dioxa-2,4-diazaspiro[4.5]dec-3-en-3-yl)-N-(pyridin-3-yl)-1H-imidazole-5-carboxamide]", "mortality at 5 µg/mL": "90 to 100"}
{"smiles": "CCN(C(=O)c1cnc(C2=NC3(CCC(C(F)(F)F)CC3)ON2C)n1C)c1cccnc1", "note": "(centres unmarked) [Ia-1-5-6, N-ethyl-1-methyl-2-(2-methyl-8-(trifluoromethyl)-1-oxa-2,4-diazaspiro[4.5]dec-3-en-3-yl)-N-(pyridin-3-yl)-1H-imidazole-5-carboxamide]", "mortality at 5 µg/mL": "90 to 100"}
{"system": "Myzus persicae (Sulzer)", "experiment": "Insecticidal Activity Test 2 against Myzus persicae (Sulzer), foliar spray on potted peppers, approximately 25 ppm", "assay_type": "in vivo", "details": "in Capsicum, 120 h, approximately 25 ppm drug solution in water, counted on day 5 after spraying, read-out: mortality rate rating", "description": "Insecticidal Activity Test 2 Against Myzus persicae (Sulzer)\nas §1, with “25” for “5”\nThe drug solution was sprayed onto the foliage of the peppers planted in the pots and air-dried, and the pots were stored in a green house.\nas §2, §3", "units": {"mortality at 25 µg/mL": "%"}}
{"smiles": "CCN(C(=O)c1cnc(C2=NC3(CCOCC3)ON2C)n1C)c1cccnc1", "note": "[Ia-1-5-2, N-ethyl-1-methyl-2-(2-methyl-1,8-dioxa-2,4-diazaspiro[4.5]dec-3-en-3-yl)-N-(pyridin-3-yl)-1H-imidazole-5-carboxamide]", "mortality at 25 µg/mL": "90 to 100"}
